The results in this text go back to ChEMBL document CHEMBL1201862, “PubChem BioAssay data set” (2004).

The source made the active and inactive calls.

The target of assay [1] is 5'-AMP-activated protein kinase catalytic subunit alpha-1 (Homo sapiens, UniProt Q13131). It counts as functional.
Assay [2] deals with Vascular endothelial growth factor receptor 1 (Homo sapiens, UniProt P17948). It counts as functional.
Assay [3] addresses Tyrosine-protein kinase receptor TYRO3 (Homo sapiens, UniProt Q06418). Type of assay: functional.
In assay [4] the target is Mitogen-activated protein kinase 8 (Homo sapiens, UniProt P45983). Type of assay: functional.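 Note: value comes from one member of a kinome-wide kinase profiling panel.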
Chain of Mitogen-activated protein kinase 8 (P45983 whole entry): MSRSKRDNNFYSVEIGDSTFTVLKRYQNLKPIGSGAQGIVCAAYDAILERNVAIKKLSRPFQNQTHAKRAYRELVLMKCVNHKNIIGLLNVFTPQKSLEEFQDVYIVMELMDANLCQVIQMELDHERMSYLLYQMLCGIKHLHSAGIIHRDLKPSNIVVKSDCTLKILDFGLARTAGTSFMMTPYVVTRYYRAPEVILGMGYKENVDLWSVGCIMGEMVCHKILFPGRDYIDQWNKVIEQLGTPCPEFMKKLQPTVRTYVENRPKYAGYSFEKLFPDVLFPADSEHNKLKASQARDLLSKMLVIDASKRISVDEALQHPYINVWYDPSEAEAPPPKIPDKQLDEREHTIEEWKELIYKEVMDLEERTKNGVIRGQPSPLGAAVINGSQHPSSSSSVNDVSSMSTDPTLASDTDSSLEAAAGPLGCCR
The target in assay [5] is ALK tyrosine kinase receptor (Homo sapiens, UniProt Q9UM73). It counts as functional.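 Note: ALK tested as one member of a kinase panel screen.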
Chain of ALK tyrosine kinase receptor (Q9UM73 whole entry): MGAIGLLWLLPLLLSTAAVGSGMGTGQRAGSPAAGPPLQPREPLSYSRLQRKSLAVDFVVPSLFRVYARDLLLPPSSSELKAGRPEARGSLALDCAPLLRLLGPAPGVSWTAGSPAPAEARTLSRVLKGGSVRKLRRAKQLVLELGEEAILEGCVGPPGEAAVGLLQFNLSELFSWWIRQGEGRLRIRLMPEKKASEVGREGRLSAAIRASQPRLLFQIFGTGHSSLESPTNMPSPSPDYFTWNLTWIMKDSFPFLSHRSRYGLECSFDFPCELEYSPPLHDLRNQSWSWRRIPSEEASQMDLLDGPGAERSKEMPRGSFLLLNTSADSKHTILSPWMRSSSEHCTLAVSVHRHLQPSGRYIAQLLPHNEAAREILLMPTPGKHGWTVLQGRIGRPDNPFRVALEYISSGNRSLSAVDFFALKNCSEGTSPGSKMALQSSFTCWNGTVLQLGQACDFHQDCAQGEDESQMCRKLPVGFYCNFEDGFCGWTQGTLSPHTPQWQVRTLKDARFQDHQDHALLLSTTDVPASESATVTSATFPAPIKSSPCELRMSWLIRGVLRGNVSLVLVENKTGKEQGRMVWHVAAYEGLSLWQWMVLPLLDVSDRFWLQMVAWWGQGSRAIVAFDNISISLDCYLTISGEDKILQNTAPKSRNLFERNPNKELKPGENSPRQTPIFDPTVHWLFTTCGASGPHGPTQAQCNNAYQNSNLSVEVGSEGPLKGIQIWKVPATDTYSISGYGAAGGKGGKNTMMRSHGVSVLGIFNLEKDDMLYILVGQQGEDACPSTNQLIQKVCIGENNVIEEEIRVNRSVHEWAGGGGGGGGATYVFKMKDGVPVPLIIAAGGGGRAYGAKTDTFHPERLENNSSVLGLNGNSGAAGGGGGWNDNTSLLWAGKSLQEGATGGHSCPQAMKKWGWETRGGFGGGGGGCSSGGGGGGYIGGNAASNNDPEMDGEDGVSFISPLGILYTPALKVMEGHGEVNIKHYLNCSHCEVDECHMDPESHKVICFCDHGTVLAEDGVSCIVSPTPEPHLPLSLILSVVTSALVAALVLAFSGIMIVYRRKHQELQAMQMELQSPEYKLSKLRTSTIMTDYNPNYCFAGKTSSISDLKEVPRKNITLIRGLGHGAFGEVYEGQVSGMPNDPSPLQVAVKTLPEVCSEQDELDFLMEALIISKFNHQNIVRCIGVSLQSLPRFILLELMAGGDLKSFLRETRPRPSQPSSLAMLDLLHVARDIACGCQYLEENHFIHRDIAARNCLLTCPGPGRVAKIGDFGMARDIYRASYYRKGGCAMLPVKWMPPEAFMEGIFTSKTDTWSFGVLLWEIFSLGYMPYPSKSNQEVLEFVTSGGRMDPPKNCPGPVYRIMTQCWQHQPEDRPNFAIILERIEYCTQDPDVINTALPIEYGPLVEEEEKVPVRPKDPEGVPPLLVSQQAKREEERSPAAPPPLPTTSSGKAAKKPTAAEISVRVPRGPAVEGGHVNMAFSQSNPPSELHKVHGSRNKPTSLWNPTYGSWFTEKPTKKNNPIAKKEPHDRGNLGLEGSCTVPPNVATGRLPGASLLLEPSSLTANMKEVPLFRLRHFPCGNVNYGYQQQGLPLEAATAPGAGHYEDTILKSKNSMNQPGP
Assay [6] deals with Fibroblast growth factor receptor 1 (Homo sapiens, UniProt P11362). Type of assay: functional.
Chain of Fibroblast growth factor receptor 1 (P11362 whole entry): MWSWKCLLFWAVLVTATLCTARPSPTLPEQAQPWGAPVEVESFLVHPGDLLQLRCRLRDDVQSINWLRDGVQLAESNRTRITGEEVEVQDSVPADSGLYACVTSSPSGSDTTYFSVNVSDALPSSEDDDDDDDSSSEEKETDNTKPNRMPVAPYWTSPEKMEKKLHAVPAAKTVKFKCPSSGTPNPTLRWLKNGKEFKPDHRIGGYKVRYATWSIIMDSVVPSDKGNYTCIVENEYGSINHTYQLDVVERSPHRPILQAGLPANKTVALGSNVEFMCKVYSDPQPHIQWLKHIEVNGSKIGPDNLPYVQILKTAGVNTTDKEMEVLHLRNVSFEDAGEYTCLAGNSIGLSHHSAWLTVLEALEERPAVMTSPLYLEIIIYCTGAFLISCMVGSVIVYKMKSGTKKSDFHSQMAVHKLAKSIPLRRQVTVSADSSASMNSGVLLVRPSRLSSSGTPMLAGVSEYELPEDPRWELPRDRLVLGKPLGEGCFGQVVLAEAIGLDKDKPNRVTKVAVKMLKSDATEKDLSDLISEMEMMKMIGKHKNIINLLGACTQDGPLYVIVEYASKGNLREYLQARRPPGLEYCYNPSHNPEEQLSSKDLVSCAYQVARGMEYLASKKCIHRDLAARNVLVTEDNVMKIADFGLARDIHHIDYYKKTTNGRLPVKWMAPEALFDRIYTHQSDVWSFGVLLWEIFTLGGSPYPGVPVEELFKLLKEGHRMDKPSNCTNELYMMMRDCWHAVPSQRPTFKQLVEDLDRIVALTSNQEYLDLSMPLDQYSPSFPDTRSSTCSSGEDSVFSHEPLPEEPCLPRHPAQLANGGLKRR
Assay [7] addresses cAMP-dependent protein kinase catalytic subunit alpha (Homo sapiens, UniProt P17612). Type of assay: functional.
Assay [8] deals with Serine/threonine-protein kinase D3 (Homo sapiens, UniProt O94806). It counts as functional.
The target in assay [9] is Proto-oncogene tyrosine-protein kinase receptor Ret (Homo sapiens, UniProt P07949). It counts as functional.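 Note: measured within a kinome-wide profiling panel, RET as the panel member.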
A further assay has as its target T1, Streptokinase A (Streptococcus pyogenes serotype M1, UniProt P10520).
T1 sequence (P10520 whole entry): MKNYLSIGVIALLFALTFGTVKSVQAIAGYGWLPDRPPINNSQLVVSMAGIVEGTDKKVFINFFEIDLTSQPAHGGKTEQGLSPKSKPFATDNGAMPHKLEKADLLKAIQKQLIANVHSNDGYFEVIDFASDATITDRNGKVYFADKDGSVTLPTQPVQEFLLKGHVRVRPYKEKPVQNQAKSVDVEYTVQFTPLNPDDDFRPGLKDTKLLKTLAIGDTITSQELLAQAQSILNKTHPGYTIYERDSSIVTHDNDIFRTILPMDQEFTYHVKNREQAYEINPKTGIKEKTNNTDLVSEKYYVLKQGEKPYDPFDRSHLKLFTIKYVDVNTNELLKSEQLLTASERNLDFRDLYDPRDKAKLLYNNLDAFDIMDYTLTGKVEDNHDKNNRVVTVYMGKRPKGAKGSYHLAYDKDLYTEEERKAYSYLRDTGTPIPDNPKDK
Description: S. pyogenes streptokinase expression inhibitors, potency, dose response, plasminogen activation absorbance, OD405 (AID 1914).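 Note: secreted streptokinase activity via plasminogen activation per viability signal from cell pellet.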 It counts as functional, Streptococcus pyogenes M1 GAS.

Assay [10] deals with T2, Replicative DNA helicase DnaB (Mycobacterium tuberculosis, UniProt P9WMR3).
T2 sequence (P9WMR3 whole entry): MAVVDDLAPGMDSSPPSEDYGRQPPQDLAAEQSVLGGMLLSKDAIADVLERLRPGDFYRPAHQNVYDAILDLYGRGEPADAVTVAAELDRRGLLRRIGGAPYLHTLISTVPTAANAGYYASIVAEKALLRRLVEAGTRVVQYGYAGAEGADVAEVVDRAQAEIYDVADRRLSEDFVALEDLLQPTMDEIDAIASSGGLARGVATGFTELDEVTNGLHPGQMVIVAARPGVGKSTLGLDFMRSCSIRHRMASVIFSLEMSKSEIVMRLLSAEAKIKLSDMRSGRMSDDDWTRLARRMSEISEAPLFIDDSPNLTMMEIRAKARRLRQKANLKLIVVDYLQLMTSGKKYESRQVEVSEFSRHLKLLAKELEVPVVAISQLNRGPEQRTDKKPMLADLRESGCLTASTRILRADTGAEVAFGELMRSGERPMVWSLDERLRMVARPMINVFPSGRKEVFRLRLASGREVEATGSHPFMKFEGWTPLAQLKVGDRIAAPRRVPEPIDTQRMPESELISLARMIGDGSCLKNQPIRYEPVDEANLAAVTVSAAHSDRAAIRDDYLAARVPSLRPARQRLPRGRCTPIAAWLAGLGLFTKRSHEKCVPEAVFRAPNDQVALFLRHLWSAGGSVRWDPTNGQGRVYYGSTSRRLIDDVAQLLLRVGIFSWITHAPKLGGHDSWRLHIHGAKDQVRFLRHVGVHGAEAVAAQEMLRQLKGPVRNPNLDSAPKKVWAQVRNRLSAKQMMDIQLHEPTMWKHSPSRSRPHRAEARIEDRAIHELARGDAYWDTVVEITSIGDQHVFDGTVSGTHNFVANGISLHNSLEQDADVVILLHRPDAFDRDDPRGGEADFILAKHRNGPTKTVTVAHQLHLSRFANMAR
In words: DnaB intein splicing inhibitors, dose response, biochemical, cell-free fluorescence (AID 449749). It counts as functional.

Assay [11] concerns the target T3, Sentrin-specific protease 7 (Homo sapiens, UniProt Q9BQF6).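 Note: Luminescence-based dose-response confirmation of ultra-high-throughput screening hits, measuring inhibition of SENP7.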
T3 sequence (Q9BQF6 whole entry): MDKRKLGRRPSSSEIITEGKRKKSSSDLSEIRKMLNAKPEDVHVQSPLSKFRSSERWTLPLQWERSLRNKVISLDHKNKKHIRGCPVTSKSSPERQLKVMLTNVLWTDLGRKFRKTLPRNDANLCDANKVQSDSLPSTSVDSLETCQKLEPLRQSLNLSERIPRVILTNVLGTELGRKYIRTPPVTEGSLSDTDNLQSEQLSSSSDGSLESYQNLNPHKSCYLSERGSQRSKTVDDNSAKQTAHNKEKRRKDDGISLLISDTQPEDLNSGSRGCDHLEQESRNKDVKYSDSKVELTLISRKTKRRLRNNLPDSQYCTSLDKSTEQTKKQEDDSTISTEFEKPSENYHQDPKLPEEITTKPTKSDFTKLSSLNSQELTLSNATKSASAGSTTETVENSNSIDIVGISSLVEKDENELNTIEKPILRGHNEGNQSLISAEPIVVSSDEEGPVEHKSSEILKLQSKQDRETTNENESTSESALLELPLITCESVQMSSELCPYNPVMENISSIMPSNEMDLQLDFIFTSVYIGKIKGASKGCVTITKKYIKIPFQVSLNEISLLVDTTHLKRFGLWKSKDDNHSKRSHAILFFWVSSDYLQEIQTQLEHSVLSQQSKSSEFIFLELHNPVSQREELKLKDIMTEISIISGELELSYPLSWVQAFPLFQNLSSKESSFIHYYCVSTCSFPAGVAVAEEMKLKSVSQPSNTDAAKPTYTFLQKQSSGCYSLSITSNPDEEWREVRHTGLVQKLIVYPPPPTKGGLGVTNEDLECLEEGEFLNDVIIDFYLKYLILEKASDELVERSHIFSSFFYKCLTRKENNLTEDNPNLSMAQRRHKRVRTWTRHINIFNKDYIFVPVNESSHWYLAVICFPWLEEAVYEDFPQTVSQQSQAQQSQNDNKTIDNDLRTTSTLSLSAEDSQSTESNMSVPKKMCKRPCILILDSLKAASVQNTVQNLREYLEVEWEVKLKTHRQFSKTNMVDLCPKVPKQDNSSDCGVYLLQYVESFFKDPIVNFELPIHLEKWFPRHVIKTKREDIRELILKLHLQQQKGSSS
It counts as functional.

The subject of the next assay is INS1. Description: beta cell apoptosis inhibitors, cytokine rescue, dose response, luminescence, retest (AID 449756).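 Note: cell death triggered by IL-1 beta plus TNF-alpha plus IFN-gamma mixture; protective hits raise ATP signal compared with cytokine alone wells.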 The note with it: Rattus norvegicus. Type of assay: functional, cell-based.

Chain of Tyrosine-protein kinase receptor TYRO3 (Q06418 whole entry): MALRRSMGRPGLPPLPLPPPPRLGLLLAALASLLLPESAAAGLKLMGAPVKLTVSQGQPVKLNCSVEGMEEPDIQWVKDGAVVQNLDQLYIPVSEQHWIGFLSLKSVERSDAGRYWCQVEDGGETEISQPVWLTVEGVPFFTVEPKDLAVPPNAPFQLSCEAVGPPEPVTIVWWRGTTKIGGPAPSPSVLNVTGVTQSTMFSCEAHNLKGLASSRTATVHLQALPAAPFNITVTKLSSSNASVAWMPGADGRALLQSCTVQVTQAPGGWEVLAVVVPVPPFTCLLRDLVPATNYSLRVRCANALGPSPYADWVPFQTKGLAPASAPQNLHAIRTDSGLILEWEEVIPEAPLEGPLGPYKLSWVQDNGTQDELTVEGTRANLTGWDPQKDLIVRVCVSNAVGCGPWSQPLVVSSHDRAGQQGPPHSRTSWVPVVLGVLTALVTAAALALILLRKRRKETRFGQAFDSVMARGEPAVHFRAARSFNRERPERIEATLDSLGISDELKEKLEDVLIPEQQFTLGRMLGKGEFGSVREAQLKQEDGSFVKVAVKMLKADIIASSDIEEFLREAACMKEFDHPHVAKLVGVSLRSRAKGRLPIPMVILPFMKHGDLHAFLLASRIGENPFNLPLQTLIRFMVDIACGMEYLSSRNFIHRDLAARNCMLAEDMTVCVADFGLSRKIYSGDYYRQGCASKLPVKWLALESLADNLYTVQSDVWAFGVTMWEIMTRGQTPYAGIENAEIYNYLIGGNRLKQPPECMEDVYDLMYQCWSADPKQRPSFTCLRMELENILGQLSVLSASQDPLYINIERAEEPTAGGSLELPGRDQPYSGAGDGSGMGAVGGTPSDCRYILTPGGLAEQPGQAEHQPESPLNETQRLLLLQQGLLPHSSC
Chain of Vascular endothelial growth factor receptor 1 (P17948 whole entry): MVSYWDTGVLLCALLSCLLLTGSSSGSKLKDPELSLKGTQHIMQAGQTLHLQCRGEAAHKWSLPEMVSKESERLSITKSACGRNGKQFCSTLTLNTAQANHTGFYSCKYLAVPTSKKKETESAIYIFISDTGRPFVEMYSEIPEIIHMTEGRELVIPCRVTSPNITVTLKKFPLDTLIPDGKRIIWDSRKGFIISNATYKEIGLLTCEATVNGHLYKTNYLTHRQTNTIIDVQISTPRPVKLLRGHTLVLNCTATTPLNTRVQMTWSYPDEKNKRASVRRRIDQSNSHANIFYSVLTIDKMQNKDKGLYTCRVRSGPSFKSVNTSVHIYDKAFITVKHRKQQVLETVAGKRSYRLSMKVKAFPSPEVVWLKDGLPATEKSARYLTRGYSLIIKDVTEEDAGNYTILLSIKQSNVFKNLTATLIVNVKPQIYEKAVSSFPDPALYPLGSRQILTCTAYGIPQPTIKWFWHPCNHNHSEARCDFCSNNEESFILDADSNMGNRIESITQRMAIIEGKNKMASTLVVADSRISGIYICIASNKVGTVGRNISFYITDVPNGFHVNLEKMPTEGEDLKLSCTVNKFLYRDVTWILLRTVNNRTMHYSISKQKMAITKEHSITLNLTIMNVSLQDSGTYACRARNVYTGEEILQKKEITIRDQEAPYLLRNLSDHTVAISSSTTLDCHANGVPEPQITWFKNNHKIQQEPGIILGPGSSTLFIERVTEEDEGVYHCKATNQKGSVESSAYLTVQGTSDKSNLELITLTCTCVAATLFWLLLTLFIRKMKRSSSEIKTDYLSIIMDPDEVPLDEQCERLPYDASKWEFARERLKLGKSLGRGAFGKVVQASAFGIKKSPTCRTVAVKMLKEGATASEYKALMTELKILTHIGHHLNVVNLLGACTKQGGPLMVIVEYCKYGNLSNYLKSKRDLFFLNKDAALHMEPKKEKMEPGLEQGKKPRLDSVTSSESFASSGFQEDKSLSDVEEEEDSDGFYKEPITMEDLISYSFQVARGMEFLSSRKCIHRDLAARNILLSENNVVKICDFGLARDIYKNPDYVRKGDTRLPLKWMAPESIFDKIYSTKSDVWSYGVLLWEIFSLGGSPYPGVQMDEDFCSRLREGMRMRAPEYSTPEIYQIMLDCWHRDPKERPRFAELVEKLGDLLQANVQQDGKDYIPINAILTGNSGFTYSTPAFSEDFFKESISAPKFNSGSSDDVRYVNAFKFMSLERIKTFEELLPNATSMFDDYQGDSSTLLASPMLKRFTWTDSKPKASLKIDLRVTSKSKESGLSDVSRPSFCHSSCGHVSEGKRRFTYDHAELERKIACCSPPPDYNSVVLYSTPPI

Turning to `CCn1c(-c2nonc2N)nc2cncc(C(=O)N3CCC(N)C3)c21` (stereo unspecified), the Ki (as a rule, the equilibrium dissociation constant of an inhibitor or competing ligand from its target) in assay [1] is > 3.16 µM (inactive); in assay [2], > 3.98 µM (inactive); in assay [3], > 3.16 µM (inactive); in assay [4] it was > 5.01 µM (inactive); in [5], > 6.31 µM (inactive); in assay [6] it was > 3.98 µM (inactive). Moreover, the Ki in assay [7] was 0.00316 µM (active); in assay [8] it was 0.631 µM (active); in [9] it was > 3.16 µM (inactive).

In the case of `Cc1[nH]nc2ccc(-c3cncc(OCC(N)Cc4c[nH]c5ccccc45)c3)cc12` (stereo unspecified), the Ki was 0.158 µM (active) in [1]; > 0.398 µM (inactive) in assay [2]; > 2 µM (inactive) in [3]; 1.58 µM (active) in assay [4]; > 1.26 µM (inactive) in [5]; 3.16 µM (active) in assay [6]. Further, the values for the Ki in assay [7], in assay [8] and in assay [9] were 0.00501 µM (active), 0.00501 µM (active) and > 1.26 µM (inactive), respectively.

On to `CCCCCCCCCCC[N+](C)(C)CC/C=C1/c2ccccc2Sc2ccc(Cl)cc21`, for which the EC50 – broadly, the midpoint of the concentration-response curve – on Streptokinase A is 8.22 µM (active). The AC50 (commonly the midpoint of the concentration-response curve, whichever way the signal moves) in [10] was > 380 µM (inactive).

With `Cc1cc(C)c[n+](C2=C([N-]S(=O)(=O)c3cccs3)C(=O)c3ccccc3C2=O)c1`, in assay [11], the IC50 (as a rule, the point on the concentration scale where inhibition reaches its midpoint) was 41.2 µM (active). In the assay with INS1, the AC50 was 3.12 µM (active). Also, at Streptokinase A, the EC50 is on record as > 150 µM (not active).

With `COC(=O)c1ccccc1NC1=C/C(=N\S(=O)(=O)c2cccs2)c2ccccc2C1=O`, the 50% inhibitory concentration (IC50) in assay [11] is 32.3 µM (active). In addition, the values for the AC50 (with INS1; in assay [10]) were 2.19 µM (active) and > 380 µM (inconclusive), respectively.
